Measurements from patent EP2759295A1, “Foam cell specific Liver X Receptor (LXR) alpha agonist, SIRT1 inhibitors as well as p300 inhibitors as pharmaceutically active agents” (Max-Planck-Gesellschaft zur Förderung der Wissenschaften …, priority 2013, dated 2014).
Like-named read-outs stand apart in the source and are kept apart here.

Experiments:
[1] = molecular target: T1, LXRα ligand binding domain (LBD) (Homo sapiens, UniProt Q13133); test: dual luciferase reporter gene assay with LXRα ligand binding domain in HEK-293 cells; format: cell-based; conditions: +DMSO
T1 construct: expressed in transfected cells; host or cells: HEK-293
T1 sequence (Q13133 164-447): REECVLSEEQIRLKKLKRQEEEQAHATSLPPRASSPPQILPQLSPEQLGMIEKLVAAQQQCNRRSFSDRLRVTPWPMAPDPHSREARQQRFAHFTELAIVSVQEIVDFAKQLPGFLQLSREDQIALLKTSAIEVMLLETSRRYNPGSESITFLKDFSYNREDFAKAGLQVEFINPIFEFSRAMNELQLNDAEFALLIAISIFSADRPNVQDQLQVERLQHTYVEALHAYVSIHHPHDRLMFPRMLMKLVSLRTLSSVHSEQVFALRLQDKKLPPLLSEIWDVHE
Experimental: The ligand binding domain (LBD) of LXRα (amino acids 164 to 447) or LXRβ (amino acids 154 to 461) was cloned into pBIND [Renilla/Amp] vector (Promega). Selection and amplification were performed in E-coli cells. Purification of the plasmids was performed with a plasmid purification kit (Qiagen). For transfection HEK-293 cells were plated in 96-well plates (TPP) at a density of 3.5 x 10^4 cells/well for 24 h. To investigate the ligand binding on LXRα ligand binding domain, 0.04 ng of renilla luciferase coding plasmide pGL4.75 (Promega), 0.04 ng of LXRα-LBD/GAL4-DBD plasmide and 80 ng of firefly luciferase coding plasmide pGL4.31 (Promega) were used in a total volume of 200 µL for each well. In LXRβ binding assay 40 ng of LXRβ-LBD/GAL4-DBD plasmide were applied in each transfection mix. Transfection was carried out for 4 h with Lipofectamine 2000 Transfection Reagent (Invitrogen) in Opti-MEM medium (Invitrogen). Ligand treatment was performed at different concentrations for 24 h. For lysis and detection dual-luciferase reporter gene assay system (Promega) and POLARstar Omega (BMG LABTECH) were used.

SIRT1 = molecular target: T2, SIRT1 (Homo sapiens, UniProt Q96EB6); test: MALDI-TOF MS deacetylation assay; format: biochemical
T2 construct: purchased Biomol International, Inc. / Enzo Life Sciences / BlueSky BioTech
T2 sequence (Q96EB6 1-747): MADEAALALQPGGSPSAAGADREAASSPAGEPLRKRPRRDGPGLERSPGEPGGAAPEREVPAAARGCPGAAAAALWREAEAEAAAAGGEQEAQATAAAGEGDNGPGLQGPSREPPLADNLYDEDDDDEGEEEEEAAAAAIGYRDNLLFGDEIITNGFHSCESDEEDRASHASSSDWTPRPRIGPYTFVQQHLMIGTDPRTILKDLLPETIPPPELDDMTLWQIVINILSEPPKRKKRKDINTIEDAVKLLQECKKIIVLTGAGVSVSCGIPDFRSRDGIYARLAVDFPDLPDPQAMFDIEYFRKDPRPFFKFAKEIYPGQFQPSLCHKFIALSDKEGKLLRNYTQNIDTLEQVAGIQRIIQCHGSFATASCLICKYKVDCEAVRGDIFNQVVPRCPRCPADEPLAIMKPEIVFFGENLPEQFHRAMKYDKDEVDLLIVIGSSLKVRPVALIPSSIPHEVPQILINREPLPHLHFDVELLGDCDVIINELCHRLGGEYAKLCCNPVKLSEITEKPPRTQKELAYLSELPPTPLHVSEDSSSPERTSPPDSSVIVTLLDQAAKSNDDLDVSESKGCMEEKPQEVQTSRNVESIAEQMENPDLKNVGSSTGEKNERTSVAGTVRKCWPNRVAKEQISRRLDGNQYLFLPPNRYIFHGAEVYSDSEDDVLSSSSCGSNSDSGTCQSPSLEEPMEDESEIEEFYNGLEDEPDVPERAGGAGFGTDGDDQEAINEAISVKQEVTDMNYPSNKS
Experimental: The assay was performed in a 20 µL reaction. 0.5 µM acetylated peptide and 120 µM NAD^+ in reaction buffer (50 mM Tris-acetate (pH 8), 137 mM NaCl, 2.7 mM KCI, 1 mM MgCl2, 5 mM DTT, 0.05 % BSA) were mixed with compound or DMSO (VC). Reactions were initiated by adding 10 nM of SIRT1. After incubation for 30 min at 37°C, reactions were stopped by formic acid and nicotinamide (f.c. 1% and 5 mM, respectively). Reactions were performed with histone H4 peptide and 1% DMSO unless stated otherwise. […]
(§1) Acetylated and deacetylated peptides were mixed at different ratios in the respective buffer including stop solution and reaction components except the enzyme. Purification, preparation and MS detection were conducted in parallel to reaction samples. CCs were generated for IC50 value determination but not for the screening.
(§2) Peptides were purified by Oasis HLB µElution Plates using a vacuum manifold [S. Sauer et al. J Chromatogr A (2004), 1049, 9-16]. Plate columns were conditioned by 70% ACN and equilibrated with 0.1% TFA. Samples were loaded, desalted by 0.1 % TFA and H2O and eluted in 70% ACN.
(§3) For ultra thin layer (UTL), supernatant of saturated CHCA in ACN / H2O (2:1) and 0.1% TFA. was mixed with isopropanol (1:3) and was spread on a ground steel target. After solvent evaporated excess of CHCA was removed from target surface with a tissue [D. Fenyo et al. J Vis Exp (2007), 192]. The matrix used for sample preparation contained saturated CHCA in ACN / 0.1% TFA (1:2) or ACN / H2O (1:2) depending on peptide size [S. L. Cohen et al. Anal Chem (1996), 68, 31-37]. HLB eluted samples and matrix were mixed (1:4) and spotted on the UTL.
(§4) Samples were measured automatically (AutoXecute software, Bruker Daltonik GmbH) using an ultraflex II MALDI-TOF mass spectrometer (Bruker Daltonik GmbH) in positive ion reflector mode. Laser power and detector gain were adjusted prior to every automatic run, which were performed in random walk movement.
(§5) For assay optimization and IC50 determination, 1000 shots were accumulated in 100 satisfactory shot steps (fuzzy control). At least one peak within a defined mass range had to fulfill the following criteria for the spectra to be accumulated: Absolute (min.) intensity: 800; S/N: 15; peak width: 0.2.
(§6) A script (Bruker Daltonik GmbH) was employed to analyze peptide peaks in a batch process (flexAnalysis software, Version 3.0, Bruker Daltonik GmbH). Percentage of de-/acetylation were calculated using the sum of the first four monoisotopic peak intensities. CC was generated by plotting experimental vs. calculated peptide acetylation. Measured sample values were interpolated with CC to determine de-/acetylation values (GraphPad Prism). When no CC was created, peak intensity ratios were generated. Verified single NP screening hits had to pass a peak ratio of ≤ 0.1 (deac/ac).
(§7) As IC50 values were not gained at initial velocity conditions, values were corrected by a conversion factor according to Wu et al. (Table 5) [G. Wu et al. J Biomol Screen (2003), 8, 694-700].

p300 [2] = molecular target: T3, p300 (Homo sapiens, UniProt Q09472); test: MALDI-TOF MS acetylation assay; format: biochemical
T3 construct: purchased Biomol International, Inc. / Enzo Life Sciences
T3 sequence (Q09472 whole entry, species assumed): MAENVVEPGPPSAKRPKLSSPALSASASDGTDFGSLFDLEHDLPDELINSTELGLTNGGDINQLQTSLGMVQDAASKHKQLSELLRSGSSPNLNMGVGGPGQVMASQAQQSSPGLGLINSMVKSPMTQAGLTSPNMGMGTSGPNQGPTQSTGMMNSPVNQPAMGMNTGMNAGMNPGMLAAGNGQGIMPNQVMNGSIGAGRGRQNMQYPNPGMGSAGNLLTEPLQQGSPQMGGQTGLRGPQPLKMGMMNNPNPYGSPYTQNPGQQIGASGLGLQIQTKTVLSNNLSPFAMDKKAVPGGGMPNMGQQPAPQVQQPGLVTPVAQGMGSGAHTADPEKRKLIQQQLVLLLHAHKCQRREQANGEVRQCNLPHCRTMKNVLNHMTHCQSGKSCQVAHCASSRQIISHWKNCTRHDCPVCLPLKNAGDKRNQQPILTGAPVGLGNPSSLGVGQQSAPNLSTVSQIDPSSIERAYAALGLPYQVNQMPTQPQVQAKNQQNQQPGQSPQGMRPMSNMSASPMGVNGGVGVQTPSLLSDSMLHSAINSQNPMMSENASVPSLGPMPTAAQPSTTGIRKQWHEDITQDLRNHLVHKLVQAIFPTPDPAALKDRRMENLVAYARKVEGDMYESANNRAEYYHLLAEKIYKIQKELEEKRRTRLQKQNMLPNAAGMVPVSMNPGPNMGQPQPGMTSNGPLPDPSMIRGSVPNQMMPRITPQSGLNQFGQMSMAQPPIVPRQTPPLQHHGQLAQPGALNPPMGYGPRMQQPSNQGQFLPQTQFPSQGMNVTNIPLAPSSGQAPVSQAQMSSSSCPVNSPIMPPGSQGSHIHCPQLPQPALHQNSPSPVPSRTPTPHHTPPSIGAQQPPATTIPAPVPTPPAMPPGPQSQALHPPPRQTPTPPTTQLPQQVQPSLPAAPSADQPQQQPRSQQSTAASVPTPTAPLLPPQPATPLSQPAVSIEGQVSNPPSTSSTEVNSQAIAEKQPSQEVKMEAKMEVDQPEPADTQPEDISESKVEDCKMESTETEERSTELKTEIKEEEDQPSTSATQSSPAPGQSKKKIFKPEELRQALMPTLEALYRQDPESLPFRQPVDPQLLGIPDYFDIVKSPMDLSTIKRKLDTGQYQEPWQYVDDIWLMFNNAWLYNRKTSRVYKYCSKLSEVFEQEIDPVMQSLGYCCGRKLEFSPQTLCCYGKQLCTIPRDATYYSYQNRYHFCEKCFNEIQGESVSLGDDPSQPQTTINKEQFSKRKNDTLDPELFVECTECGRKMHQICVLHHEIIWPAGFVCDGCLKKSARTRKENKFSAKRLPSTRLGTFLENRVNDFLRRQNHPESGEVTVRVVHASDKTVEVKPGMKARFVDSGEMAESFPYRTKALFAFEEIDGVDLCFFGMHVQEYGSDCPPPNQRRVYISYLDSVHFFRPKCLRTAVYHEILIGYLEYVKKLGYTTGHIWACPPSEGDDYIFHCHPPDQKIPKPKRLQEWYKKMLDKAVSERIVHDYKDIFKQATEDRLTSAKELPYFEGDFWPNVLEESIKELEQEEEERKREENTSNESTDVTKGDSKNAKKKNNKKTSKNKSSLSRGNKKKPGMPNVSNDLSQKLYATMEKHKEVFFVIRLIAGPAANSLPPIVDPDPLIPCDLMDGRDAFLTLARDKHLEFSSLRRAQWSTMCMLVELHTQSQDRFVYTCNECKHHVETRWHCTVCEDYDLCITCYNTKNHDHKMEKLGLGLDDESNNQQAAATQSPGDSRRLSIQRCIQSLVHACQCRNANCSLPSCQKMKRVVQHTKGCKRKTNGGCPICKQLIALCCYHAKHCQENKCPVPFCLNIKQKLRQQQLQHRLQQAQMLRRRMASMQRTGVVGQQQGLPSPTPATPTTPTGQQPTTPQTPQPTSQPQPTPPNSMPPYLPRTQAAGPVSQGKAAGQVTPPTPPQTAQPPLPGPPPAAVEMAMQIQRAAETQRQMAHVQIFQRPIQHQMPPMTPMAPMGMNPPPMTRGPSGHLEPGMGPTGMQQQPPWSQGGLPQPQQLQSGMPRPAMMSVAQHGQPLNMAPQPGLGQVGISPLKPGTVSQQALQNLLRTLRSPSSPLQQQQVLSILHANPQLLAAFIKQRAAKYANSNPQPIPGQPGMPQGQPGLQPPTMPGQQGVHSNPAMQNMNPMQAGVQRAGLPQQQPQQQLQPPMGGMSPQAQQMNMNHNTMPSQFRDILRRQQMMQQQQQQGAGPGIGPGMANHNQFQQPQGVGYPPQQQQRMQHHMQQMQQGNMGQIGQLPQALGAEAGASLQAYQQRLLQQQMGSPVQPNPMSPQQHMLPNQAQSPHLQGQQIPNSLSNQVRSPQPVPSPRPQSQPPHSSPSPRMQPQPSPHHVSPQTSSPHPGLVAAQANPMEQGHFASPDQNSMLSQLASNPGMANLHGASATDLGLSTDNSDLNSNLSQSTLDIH
Experimental: Reactions were started by adding 0.5 µM HAT peptide and 120 µM AcCoA and incubated for 60 min at 30°C. After incubation at 30°C for up to 60 min, reactions were stopped by formic acid (f.c. 2%). Reaction buffer consisted of 50 mM HEPES (pH 7.9), 0.1 mM EDTA and 50 µg/mL BSA.
as §1, §2, §3, §4, §5, §6, §7

p300 [3] = molecular target: T3, p300; test: radioactivity based assay (Reaction Biology Corp.); format: biochemical
Source text: IC50 for NP 9 was also validated by a radioactivity based assay, and performed by Reaction Biology Corp. (RBC).

THP-1 cells = test: TNFalpha ELISA in LPS-treated THP-1 cells; format: cell-based, human; conditions: 10 µM, LPS for 5 hours
Experimental: THP-1 cells were seeded in a 24-well plate (1.2 x 10^6 cells/well) in a volume of 0.4 mL. Cells were treated with 10 µM NP 9 or DMSO (VC). After 1 h, 10 ng/mL LPS (Sigma, cat.no. L5293) were added and incubated for another 5 h. Medium was separated from the cells by centrifugation and used for detection of TNFalpha release by a human TNF alpha ELISA Kit [V. M. Nayagam et al. J Biomol Screen (2006), 11, 959-967].

p300 [4] = molecular target: T3, p300; conditions: literature (Balasubramanyam et al.); cited from earlier work
[5] = Table 3, corrected values (see Table 5), read-out: IC50 values
[6] = corrected by conversion factor according to Wu et al., read-out: Corrected IC50
[7] = uncorrected, not at initial velocity conditions, read-out: Obtained IC50'

Structure (SMILES)	IC50 (SIRT1; [5]) [µM]	IC50 (SIRT1; [6]) [µM]	IC50 (SIRT1; [7]) [µM]	other results
CC(C)CC[C@@H](O)[C@@H](C)[C@H]1CC[C@H]2[C@@H]3CC=C4C[C@@H](O)CC[C@]4(C)[C@H]3CC[C@]12C [22R, 22(R)-hydroxycholesterol]				EC50 ([1]; LXRα reporter gene activation): 13.3 µM; Efficacy ([1]; reporter gene transcription vs. T09): 4%
COc1c(-c2c(O)cc(O)c3c(=O)cc(-c4ccc(O)cc4)oc23)c(O)cc2oc(-c3ccc(O)cc3)cc(=O)c12 [NP 2, 5',7,7'-trihydroxy-2,2'-bis(4-hydroxyphenyl)-5-methoxy-6,8'-bi(4H-chromene)-4,4'-dione]	28 ± 9	28 ± 9	39 ± 13	
O=c1cc(-c2ccc(O)c(-c3c(O)cc(O)c4c(=O)cc(-c5ccc(O)cc5)oc34)c2)oc2cc(O)cc(O)c12 [NP 3, 8-(5-(5,7-dihydroxy-4-oxo-4H-chromen-2-yl)-2-hydroxyphenyl)-5,7-dihydroxy-2-(4-hydroxyphenyl)-4H-chromen-4-one]	36 ± 6	36 ± 6	50 ± 8	
O=C1CC(c2ccccc2)Oc2c(Cc3cccc(O)c3O)c(O)c(Cc3cccc(O)c3O)c(O)c21 (stereo not shown) [NP 4, 6,8-bis(2,3-dihydroxybenzyl)-5,7-dihydroxy-2-phenylchroman-4-one]	46 ± 4	46 ± 4	63 ± 5	
COC1C(OC(N)=O)C(O)C(Oc2ccc(-c3coc4cc(O)cc(O)c4c3=O)cc2)OC1(C)C (stereo not shown) [NP 5, 6-(4-(5,7-dihydroxy-4-oxo-4H-chromen-3-yl)phenoxy)-5-hydroxy-3-methoxy-2,2-dimethyl-tetrahydro-2H-pyran-4-yl carbamate]	49 ± 3	49 ± 3	68 ± 4	
CC(C)=CCc1c(O)cc(O)c2c(=O)c(O)c(-c3ccc(O)c(O)c3)oc12 [NP 9, 2-(3,4-dihydroxyphenyl)-3,5,7-trihydroxy-8-(3-methylbut-2-enyl)-4H-chromen-4-one]				IC50 (p300 [2]; MALDI MS assay, read-out: IC50 value): 1.71 µM; IC50 (p300 [2]; [6]): 1.71 ± 0.07 µM; times stronger than anacardic acid (p300 [2]; p300 IC50 comparison): about 4 times; times stronger than garcinol (p300 [2]; p300 IC50 comparison): about 3.5 times; IC50 (p300 [2]; [7]): 2.35 ± 0.09 µM; IC50 (p300 [3]): 2.1 µM; levels of TNFα secreted (THP-1 cells): significant anti-inflammatory effects by reducing the levels of TNFα
CCCCCCCCCCCCCCCc1cccc(O)c1C(=O)O [anacardic acid]				IC50 (p300 [4]): 8.5 µM
